# Assay results reported in US6653354B2, “NMDA antagonist comprising xenon” (priority 1999, dated 2003).
# Key:
# [1] = tested on: glutamatergic synapses (NMDA receptor slow component, AMPA/KA receptor fast component) of hippocampal neurons; assay: Excitatory (glutamatergic) postsynaptic currents, voltage-clamped autaptic hippocampal neurons; format: cell-based, rat
# Protocol: Hippocampal neurons were grown in culture using methods described previously (Segal M M et al, J. Neurophysiol. 1990, 64:1390-1399; Bekkers J M et al, Proc. Natl. Acad. Sci. U.S.A. 1991, 88:7834-7838; Mennerick S et al, J. Neurophysiol. 1995, 73:320-332). Briefly, hippocampi from Sprague Dawley rats (postnatal day 1-3) were dissected, roughly sliced and agitated in a papain-containing solution (20 units ml^−1) for 30 minutes at 37 EC. After washing with enzyme-free solution, the tissue was gently triturated with a fire-polished Pasteur pipette and the cells were plated out at a density of 8-10×10^4 cells ml^−1 and cultured (95% air/5% CO2) at 37° C. Glass coverslips used for culturing the cells were first coated with agarose (0.15% w/v) and then sprayed with a fine mist of poly-D-lysine (PDL) and collagen (0.1 mg ml^−1 PDL and 0.5 mg ml^−1 rat-tail collagen) from a glass micro-atomiser and sterilized by UV exposure. This produced micro-islands of permissive substrate with diameters of between 100 and 1000 μm. At 3-4 days after plating, when the glial cell layer was about 80% confluent, an anti-mitotic agent (cytosine β-D-arabinofuranoside, 5 μM) was added to arrest glial cell proliferation. Neuronal cultures were then allowed to mature for another 4-9 days. We used micro-islands which contained single isolated neurons whose axonal processes and dendritic trees formed multiple self-synapses (autapses). This procedure provided a large population of phenotypically identical monosynaptic connections.
# The neurons were voltage-clamped using the whole-cell recording technique (Axopatch 200 amplifier, Axon Instruments, Foster City, Calif.). Electrodes were fabricated from borosilicate glass and typically had resistances of between 3-5 MΩ. Series resistance was compensated by 75-90%. Neurons were voltage-clamped at −60 mV, and synaptic responses were stimulated by a 2 ms depolarising pulse to +20 mV. […] For the synaptic measurements, data were sampled at 50 kHz, filtered at 20 kHz (−3 dB, 8-pole Bessel) and stored on a computer. The extracellular recording solution was (mM) 137 NaCl, 5 KCl, 3 CaCl2, 5 HEPES, 10 glucose, 0.001 glycine, 0.0001 strychnine-HCl, titrated to pH 7.3 with NaOH; and the intracellular (pipette) solution was (mM) 140 KCl, 4 NaCl, 0.5 EGTA, 2 MgATP, 10 HEPES, titrated to pH 7.25 with KOH.
# Xenon solutions were prepared by first bubbling pure gases (oxygen, nitrogen or xenon) through fine sintered-glass bubblers in 250- or 500-ml Drechsel bottles filled with extracellular recording saline. […] (To minimise oxidization, the neurotoxins and neurotransmitters were excluded from the fully oxygenated saline.) During bubbling, the solutions were continually stirred at room temperature. These solutions were then mixed to achieve the desired final concentrations of the gases. Our control solutions usually contained 80% of the nitrogen solution and 20% of the oxygen solution, while our test solutions usually contained 80% of the xenon solution and 20% of the oxygen solution. Using a Bunsen water/gas partition coefficient of 0.0965 (Smith R A et al, Biochim. Biophys. Acta 1981, 645:327-338) we calculate that our standard test solution contained 3.4 mM xenon. Xenon (research grade, 99.993% pure) was supplied by BOC gases, Guildford, Surrey, UK. In all cases xenon was pre-applied to the neurons for at least 30 seconds before the initiation of synaptic currents.
# In order to obtain an estimate for the total charge transfer, the EPSCs or IPSCs were numerically integrated.
# [2] = tested on: c Fos expression in arcuate nucleus of hypothalamus; assay: c Fos expression in arcuate nucleus after NMA (inhibition of synaptic plasticity in vivo); set-up: species or system Sprague Dawley female adult rats; conditions: MK801 0.5 mg/kg s.c. + NMA 100 mg/kg s.c.
# Excerpt: With exposure to NMA neuronal activation is enhanced (E vs A) which is indicative of synaptic plasticity. In the presence of both Xenon (D) and MK 801 (B), synaptic plasticity induced by NMA is inhibited. […] This is sometimes referred to as long term potentiation, an example of synaptic plasticity. […] The attenuation of c Fos expression is a reflection of the inhibition of synaptic plasticity.
# [3] = tested on: neurons of arcuate nucleus of hypothalamus; assay: NMA-induced neuron injury in the arcuate nucleus (neuroprotection in vivo); set-up: species or system Sprague Dawley female adult rats; conditions: MK801 0.5 mg/kg s.c. + NMA 100 mg/kg s.c.
# Protocol: It can be seen that NMA caused neuronal degeneration and vacuoulated swelling in the neuropil giving a spongiform appearance in the arcuate nucleus (E). The degenerated neuron has a pyknotic nucleus, which look like “bulls' eyes” because of oedematous swelling of the cytoplasmic compartment.
# Rats were injected with NMA (100 mg/kg) sc and sacrificed 4 hours later after exposure to air (“NMA”; n=7) or xenon 75% (“75% xenon+NMA”; n=8). (For comparison the effect of MK801, the NMDA antagonist, is also shown). The arcuate nucleus was removed and sectioned and stained with cresyl violet. Control animals (“PS”; n=6) had neither NMA nor xenon administered. Data are reflected as either the mean of three sections/animal (upper) or the sum (lower) of degenerated neurons in both arcuate nuclei.
# NMDA receptors = format: cell-based, rat; conditions: neurons clamped at −60 mV
# [4] = tested on: adenylyl cyclase (AC) / alpha-2 adrenergic receptors; assay: Adenylyl cyclase activity in neuroblastoma X glioma hybrid cell line (synaptic plasticity paradigm); format: cell-based
# Excerpt: Perturbation of function in the central nervous system can be produced by a change in the strength of neural connections, which is referred to as synaptic plasticity. The present inventors have used the neuroblastoma X glioma hybrid cell line to examine the effect of xenon on synaptic plasticity. In this paradigm the alpha-2 adrenergic receptors, which are pivotally involved in synaptic transmission, inhibit adenylyl cyclase (AC).
# To examine the inhibitory effect of alpha-2 adrenergic receptors on AC it is first necessary to stimulate the endogenous AC with Prostaglandin E1 (PGE1).
# To induce “synaptic plasticity” cells are pretreated for 8 hours with norepinephrine; after preparing homogenates from thoroughly washed cells, re-applied norepinephrine loses its inhibitory effect on PGE1-stimulated AC activity.
# [5] = excitatory currents + 200 μM AP5
compound,measurement,setting,value
"NC(CCCP(=O)(O)O)C(=O)O (racemic) [AP5, DL-2-amino-5-phosphononpentanoate, reference compound]",reduction in total charge transfer,[1]; 200 μM AP5,75%
same,Decay half-time % change (means ± SEM),[1]; [5],−24.1 ± 3.3%
same,Ifast % change (means ± SEM),[1]; [5],6.8 ± 6.2%
same,Ipeak % change (means ± SEM),[1]; [5],−16.3 ± 2.1%
same,Islow % change (means ± SEM),[1]; [5],−98.8 ± 0.8%
same,Qfast % change (means ± SEM),[1]; [5],5.3 ± 9.6%
same,Qslow % change (means ± SEM),[1]; [5],−96.0 ± 3.4%
same,Total charge transfer % change (means ± SEM),[1]; [5],−75.2 ± 2.5%
same,τfast % change (means ± SEM),[1]; [5],−5.9 ± 2.3%
"C[C@]12N[C@H](Cc3ccccc31)c1ccccc12 [MK801, reference compound]",synaptic plasticity induced by NMA (c Fos expression),[2],is inhibited
same,NMA-induced neuronal injury (cresyl fast violet histology),[3],prevented NMA-induced injury
"CN[C@H](CC(=O)O)C(=O)O [NMDA, N-methyl-D-aspartate]",Hill coefficient,NMDA receptors,1.2±0.1
same,EC50,NMDA receptors; read-out: EC50 for activation of inward current,24 ± 2 µM
"CCCCC[C@H](O)/C=C/[C@H]1[C@H](O)CC(=O)[C@@H]1CCCCCCC(=O)O [PGE1, Prostaglandin E1]",effect on adenylyl cyclase (AC) activity,[4]; increasing doses of PGE1,dose-dependently stimulates
NC[C@H](O)c1ccc(O)c(O)c1 [norepinephrine],effect on PGE1-stimulated AC activity,[4]; norepinephrine coadministered with PGE1,dose-dependently inhibited
